The record followed here is patent US9783532B2, “Molecules having certain pesticidal utilities, and intermediates, compositions, and processes related thereto” (Dow AgroSciences LLC, priority 2013, dated 2017).

What all share (format): in vivo
For series [1], the system named is Beet Armyworm (Spodoptera exigua) ("BAW"). Nature of the series: Bioassay on beet armyworm (BAW), 128-well diet tray assay. Conditions: for pest or weed control at 50 µg/cm2: Table ABC (FB), activity rating class, read-out: BAW (Biological Results, Insect species); for mortality at 50 µg/cm2: 168 h, 50 μg/cm^2 on artificial diet, second instar BAW larvae, 25° C., five to seven days, average of eight wells, read-out: BAW % Control (or Mortality) rating. The gist of the method:
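Percent mortality, averaged across eight wells, was read after five to seven days at 25° C. under 14:10 light-dark. Each well held one to five second-instar larvae on artificial diet that had been treated with 50 μg/cm^2 compound in 90:10 acetone-water and dried.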

For series [2], the system named is Cabbage Looper (Trichoplusia ni) ("CL"). The series can be described thus: Bioassay on cabbage looper (CL), 128-well diet tray assay. Conditions: for pest or weed control at 50 µg/cm2: activity rating class, read-out: CL (Biological Results, Insect species); for mortality at 50 µg/cm2: 168 h, 50 μg/cm^2 on artificial diet, second instar CL larvae, 25° C., five to seven days, average of eight wells, read-out: CL % Control (or Mortality) rating. In a few lines: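 Percent mortality, averaged across eight replicate wells, was read after five to seven days at 25 °C under a 14:10 photoperiod. Each well held one to five second-instar T. ni on diet carrying a dried 50 μg/cm^2 dose applied in acetone-water 90:10.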

Series [3] deals with Yellow Fever Mosquito "YFM" (Aedes aegypti). Conditions: for YFM (Biological Results, Insect species): activity rating class; for YFM % Control (or Mortality) rating: about 1 day-old larvae, 96-well plate, room temperature, 3 days. How it is done:
Certain molecules disclosed in this document were tested against YFM using procedures described in the following paragraph. In the reporting of the results, the “YFM Rating Table” was used (See Table Section).
Master plates containing 400 μg of a molecule dissolved in 100 μL of dimethyl sulfoxide (DMSO) (equivalent to a 4000 ppm solution) are used. A master plate of assembled molecules contains 15 μL per well. To this plate, 135 μL of a 90:10 wateracetone mixture is added to each well. A robot (Biomek® NXP Laboratory Automation Workstation) is programmed to dispense 15 μL aspirations from the master plate into an empty 96-well shallow plate (“daughter” plate). There are 6 reps (“daughter” plates) created per master. The created daughter plates are then immediately infested with YFM larvae.
The day before plates are to be treated, mosquito eggs are placed in Millipore water containing liver powder to begin hatching (4 g. into 400 mL). After the daughter plates are created using the robot, they are infested with 220 μL of the liver powder/larval mosquito mixture (about 1 day-old larvae). After plates are infested with mosquito larvae, a non-evaporative lid is used to cover the plate to reduce drying. Plates are held at room temperature for 3 days prior to grading. After 3 days, each well is observed and scored based on mortality.

Like-named read-outs stand apart in the source and are kept apart here.

In the case of `CCN(CCc1ccc(-c2ncn(-c3ccc(OC(F)(F)F)cc3)n2)cc1)C(=O)/N=C1\SCC(=O)N1c1cc(C)ccc1C(C)C` [FB54, (Z)-1-ethyl-3-(3-(2-isopropyl-5-methylphenyl)-4-oxothiazolidin-2-ylidene)-1-(4-(1-(4-(trifluoromethoxy)phenyl)-1H-1,2,4-triazol-3-yl)phenethyl)urea], the pest or weed control at 50 µg/cm2 in series [1] and in series [2] (Table ABC (FB)) was 50 to 100% each time. The “YFM (Biological Results, Insect species)” value in series [3] (Table ABC (FB)) is given as “A (80-100)”.

For the molecule `Cc1ccc(C(C)C)c(N2C(=O)CS/C2=N\C(=O)NCC(Br)c2ccc(-c3ncn(-c4ccc(OC(F)(F)F)cc4)n3)cc2)c1` (stereo not shown) [FB71, (Z)-1-(2-bromo-2-(4-(1-(4-(trifluoromethoxy)phenyl)-1H-1,2,4-triazol-3-yl)phenyl)ethyl)-3-(3-(2-isopropyl-5-methylphenyl)-4-oxothiazolidin-2-ylidene)urea], the pest or weed control at 50 µg/cm2 in series [1] and in series [2] (Table ABC (FB)) was 50 to 100% throughout. For the same molecule, the “YFM (Biological Results, Insect species)” value in series [3] (Table ABC (FB)) was “A (80-100)”.

Broadly, the mortality is the percentage killed. For the molecule `CCc1cccc(C)c1N1C(=O)CS/C1=N\C(=O)NCCCc1ccc(-c2ncn(-c3ccc(OC(F)(F)F)cc3)n2)cc1` [P101, (Z)-1-(3-(2-ethyl-6-methylphenyl)-4-oxothiazolidin-2-ylidene)-3-(3-(4-(1-(4-(trifluoromethoxy)phenyl)-1H-1,2,4-triazol-3-yl)phenyl)propyl)urea], the mortality at 50 µg/cm2 is 0 to 50% in series [1] and 50 to 100% in series [2]. In addition, in series [3], the “YFM % Control (or Mortality) rating” value is “D (No activity noticed in this bioassay)”.

On to `Cc1ccc(C(C)C)c(N2/C(=N/C(=O)NCCc3ccc(-c4ncn(-c5ccc(OC(F)(F)F)cc5)n4)cc3)SCC2(C)O)c1` (stereo not shown) [FB67, (Z)-1-(4-hydroxy-3-(2-isopropyl-5-methylphenyl)-4-methylthiazolidin-2-ylidene)-3-(4-(1-(4-(trifluoromethoxy)phenyl)-1H-1,2,4-triazol-3-yl)phenethyl)urea], for which the pest or weed control at 50 µg/cm2 in series [1] and in series [2] (Table ABC (FB)) was 50 to 100% in each case. Also, in series [3] (Table ABC (FB)), the “YFM (Biological Results, Insect species)” value is “A (80-100)”.

On to `Cc1ccc(N2/C(=N/C(=O)NCCc3ccc(-c4ncn(-c5ccc(OC(F)(F)F)cc5)n4)cc3)SCC2C)c(C(C)C)c1` (stereo not shown) [FB60, (Z)-1-(3-(2-isopropyl-4-methylphenyl)-4-methylthiazolidin-2-ylidene)-3-(4-(1-(4-(trifluoromethoxy)phenyl)-1H-1,2,4-triazol-3-yl)phenethyl)urea], for which the pest or weed control at 50 µg/cm2 in series [1] and in series [2] (Table ABC (FB)) was 50 to 100% throughout. The “YFM (Biological Results, Insect species)” value in series [3] (Table ABC (FB)) is reported as “A (80-100)”.

For the molecule `CC(C)c1ccccc1N1C(=O)CS/C1=N\C(=O)NCCCCc1ccc(-c2ncn(-c3ccc(OC(F)(F)F)cc3)n2)cc1` [P146, P208, (Z)-1-(3-(2-isopropylphenyl)-4-oxothiazolidin-2-ylidene)-3-(4-(4-(1-(4-(trifluoromethoxy)phenyl)-1H-1,2,4-triazol-3-yl)phenyl)butyl)urea], the mortality at 50 µg/cm2 in series [1] and in series [2] was 50 to 100% throughout. The “YFM % Control (or Mortality) rating” value in series [3] was “A (80-100)”.

With `Cc1cccc(C)c1N1/C(=N/C(=O)NCCc2ccc(-c3ncn(-c4ccc(OC(F)(F)F)cc4)n3)cc2)SCC1C` (stereo not shown) [FB59, (Z)-1-(3-(2,6-dimethylphenyl)-4-methylthiazolidin-2-ylidene)-3-(4-(1-(4-(trifluoromethoxy)phenyl)-1H-1,2,4-triazol-3-yl)phenethyl)urea], the pest or weed control at 50 µg/cm2 in series [1] and in series [2] (Table ABC (FB)) was 50 to 100% in each case. The “YFM (Biological Results, Insect species)” value in series [3] (Table ABC (FB)) is recorded as “A (80-100)”.

For the molecule `Cc1ccccc1N1C(=O)CS/C1=N\C(=O)NCCCCc1ccc(-c2ncn(-c3ccc(OC(F)(F)F)cc3)n2)cc1` [P144, (Z)-1-(4-oxo-3-(o-tolyl)thiazolidin-2-ylidene)-3-(4-(4-(1-(4-(trifluoromethoxy)phenyl)-1H-1,2,4-triazol-3-yl)phenyl)butyl)urea], the mortality at 50 µg/cm2 in series [1] and in series [2] was 50 to 100% in each case. Further, in series [3], the “YFM % Control (or Mortality) rating” value was “A (80-100)”.

With `CCc1cc(C)ccc1N1C(=O)CS/C1=N\C(=O)NCCc1ccc(-c2ncn(-c3ccc(OC(F)(F)F)cc3)n2)cc1` [P31, (Z)-1-(3-(2-ethyl-4-methylphenyl)-4-oxothiazolidin-2-ylidene)-3-(4-(1-(4-(trifluoromethoxy)phenyl)-1H-1,2,4-triazol-3-yl)phenethyl)urea], the mortality at 50 µg/cm2 in series [1] and in series [2] was 50 to 100% throughout. In series [3], the “YFM % Control (or Mortality) rating” value is “A (80-100)”.

Consider `Cc1ccc(N2C(=O)CS/C2=N\C(=O)NCCc2ccc(-c3ncn(-c4ccc(OC(F)(F)F)cc4)n3)cc2)c(C(C)C)c1` [P26, (Z)-1-(3-(2-isopropyl-4-methylphenyl)-4-oxothiazolidin-2-ylidene)-3-(4-(1-(4-(trifluoromethoxy)phenyl)-1H-1,2,4-triazol-3-yl)phenethyl)urea], for which the mortality at 50 µg/cm2 in series [1] and in series [2] was 50 to 100% each time. In addition, the “YFM % Control (or Mortality) rating” value in series [3] is recorded as “A (80-100)”.

On to `C=CCN(CCc1ccc(-c2ncn(-c3ccc(OC(F)(F)F)cc3)n2)cc1)C(=O)/N=C1\SCC(=O)N1c1cc(C)ccc1C(C)C` [FB61], for which the pest or weed control at 50 µg/cm2 in series [1] and in series [2] (Table ABC (FB)) was 50 to 100% in each case. Moreover, the “YFM (Biological Results, Insect species)” value in series [3] (Table ABC (FB)) is listed as “A (80-100)”.

With `CCC(CNC(=O)/N=C1\SCC(=O)N1c1cc(OC)ccc1C(C)C)c1ccc(-c2ncn(-c3ccc(OC(F)(F)F)cc3)n2)cc1` (stereo not shown) [P683, (Z)-1-(3-(2-isopropyl-5-methoxyphenyl)-4-oxothiazolidin-2-ylidene)-3-(2-(4-(1-(4-(trifluoromethoxy)phenyl)-1H-1,2,4-triazol-3-yl)phenyl)butyl)urea], in series [1], the mortality at 50 µg/cm2 is 50 to 100%. In addition, the “YFM % Control (or Mortality) rating” value in series [3] is recorded as “A (80-100)”.

For `CCC(CNC(=O)/N=C1\SCC(=O)N1c1ccccc1C(C)C)c1ccc(-c2ncn(-c3ccc(OC(F)(F)F)cc3)n2)cc1` (stereo not shown) [P209, (Z)-1-(3-(2-isopropylphenyl)-4-oxothiazolidin-2-ylidene)-3-(2-(4-(1-(4-(trifluoromethoxy)phenyl)-1H-1,2,4-triazol-3-yl)phenyl)butyl)urea], the mortality at 50 µg/cm2 in series [1] fell in the range of 50 to 100%. Besides, the “YFM % Control (or Mortality) rating” value in series [3] is listed as “A (80-100)”.

Take `CCc1cccc(C)c1NC(=S)NC(=O)NCCCCc1ccc(-c2ncn(-c3ccc(OC(F)(F)F)cc3)n2)cc1` [PC153, 1-[(2-ethyl-6-methyl-phenyl)carbamothioyl]-3-[4-[4-[1-[4-(trifluoromethoxy)phenyl]-1H-1,2,4-triazol-3-yl]phenyl]butyl]urea]: in series [2] (Table ABC (PC)), the pest or weed control at 50 µg/cm2 lay in the range of 50 to 100%. The “YFM (Biological Results, Insect species)” value in series [3] (Table ABC (PC)) was “B (More than 0-Less than 80)”.

As to `CC(C)c1cc(F)ccc1N1C(=O)CS/C1=N\C(=O)NCCCc1cccc(-c2ncn(-c3ccc(OC(F)(F)F)cc3)n2)c1` [P129, (Z)-1-(3-(4-fluoro-2-isopropylphenyl)-4-oxothiazolidin-2-ylidene)-3-(3-(3-(1-(4-(trifluoromethoxy)phenyl)-1H-1,2,4-triazol-3-yl)phenyl)propyl)urea], the mortality at 50 µg/cm2 in series [1] and in series [2] was 50 to 100% throughout.

On to `COc1ccc(NC(=S)NC(=O)NCCCCc2cccc(-c3ncn(-c4ccc(OC(F)(F)F)cc4)n3)c2)c(C)c1` [FB36, 1-[(4-methoxy-2-methyl-phenyl)carbamothioyl]-3-[4-[3-[1-[4-(trifluoromethoxy)phenyl]-1H-1,2,4-triazol-3-yl]phenyl]butyl]urea], for which the pest or weed control at 50 µg/cm2 in series [1] lay in the range of 0 to 50%; in series [2] (Table ABC (FB)) it was 50 to 100%.

For `CCC(CNC(=O)/N=C1\SCC(=O)N1c1ccc(F)cc1C(C)C)c1ccc(-c2ncn(-c3ccc(OC(F)(F)F)cc3)n2)cc1` (stereo not shown) [P1163], the mortality at 50 µg/cm2 in series [1] fell in the range of 50 to 100%. The “YFM % Control (or Mortality) rating” value in series [3] is “D (No activity noticed in this bioassay)”.

Turning to `CCc1cccc(C)c1N1C(=O)CS/C1=N\C(=O)NCCCCc1cccc(-c2ncn(-c3ccc(OC(F)(F)F)cc3)n2)c1` [P179, (Z)-1-(3-(2-ethyl-6-methylphenyl)-4-oxothiazolidin-2-ylidene)-3-(4-(3-(1-(4-(trifluoromethoxy)phenyl)-1H-1,2,4-triazol-3-yl)phenyl)butyl)urea], the mortality at 50 µg/cm2 in series [1] and in series [2] was 0% in each case.

For `COc1ccc(C(C)C)c(NC(=S)NC(=O)NCCc2ccc(-c3ncn(-c4ccc(OC(F)(F)F)cc4)n3)cc2C)c1` [FB2], the pest or weed control at 50 µg/cm2 in series [1] and in series [2] (Table ABC (FB)) was 50 to 100% in each case.
